Holding throughout (format): functional
The target in one assay is Genome polyprotein (dengue virus type 2, UniProt P29990). The experiment in a line: flavivirus cap methylation enzyme inhibition – biochemical, confirmation dose response, primary screen (AID 588689).
A further assay deals with HeLa. The experiment in a line: Cytotoxicity counterscreen assay for transcriptional activators of heat shock protein 70 (Hsp70). [Related pubchem assays: 1203, 1252 ]. The following applies: Homo sapiens. A general note: The purpose of a counterscreen is to sort out artefacts and off-target activity.
Another assay deals with Beta-galactosidase (Escherichia coli, UniProt Q8VNN2). Briefly: PubChem AID 485352.
Assay [1] is described as follows: loss of viability in HepG2 cells – cell-based, CellTiter-Glo, cherry-picked, cytotoxicity control for Shn3 inhibitor project, dose response (AID 624134). A general note: Cellular ATP, detected with luciferase, serves as a proxy for viable cell number.
Assay [2] can be described thus: viability of PTEN-deleted HCT116 cells – cell-based, HCT116 PTEN knockout, dose response (AID 1047).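 Note: HCT116 colon tumor cells with PTEN knocked out; cells exposed to compound for 60 hours before readout; potency for loss of cell viability measured by luminescence.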
In assay [3] the target is T1, Apoptotic protease-activating factor 1 (Homo sapiens, UniProt O14727).
T1 sequence (O14727 whole entry): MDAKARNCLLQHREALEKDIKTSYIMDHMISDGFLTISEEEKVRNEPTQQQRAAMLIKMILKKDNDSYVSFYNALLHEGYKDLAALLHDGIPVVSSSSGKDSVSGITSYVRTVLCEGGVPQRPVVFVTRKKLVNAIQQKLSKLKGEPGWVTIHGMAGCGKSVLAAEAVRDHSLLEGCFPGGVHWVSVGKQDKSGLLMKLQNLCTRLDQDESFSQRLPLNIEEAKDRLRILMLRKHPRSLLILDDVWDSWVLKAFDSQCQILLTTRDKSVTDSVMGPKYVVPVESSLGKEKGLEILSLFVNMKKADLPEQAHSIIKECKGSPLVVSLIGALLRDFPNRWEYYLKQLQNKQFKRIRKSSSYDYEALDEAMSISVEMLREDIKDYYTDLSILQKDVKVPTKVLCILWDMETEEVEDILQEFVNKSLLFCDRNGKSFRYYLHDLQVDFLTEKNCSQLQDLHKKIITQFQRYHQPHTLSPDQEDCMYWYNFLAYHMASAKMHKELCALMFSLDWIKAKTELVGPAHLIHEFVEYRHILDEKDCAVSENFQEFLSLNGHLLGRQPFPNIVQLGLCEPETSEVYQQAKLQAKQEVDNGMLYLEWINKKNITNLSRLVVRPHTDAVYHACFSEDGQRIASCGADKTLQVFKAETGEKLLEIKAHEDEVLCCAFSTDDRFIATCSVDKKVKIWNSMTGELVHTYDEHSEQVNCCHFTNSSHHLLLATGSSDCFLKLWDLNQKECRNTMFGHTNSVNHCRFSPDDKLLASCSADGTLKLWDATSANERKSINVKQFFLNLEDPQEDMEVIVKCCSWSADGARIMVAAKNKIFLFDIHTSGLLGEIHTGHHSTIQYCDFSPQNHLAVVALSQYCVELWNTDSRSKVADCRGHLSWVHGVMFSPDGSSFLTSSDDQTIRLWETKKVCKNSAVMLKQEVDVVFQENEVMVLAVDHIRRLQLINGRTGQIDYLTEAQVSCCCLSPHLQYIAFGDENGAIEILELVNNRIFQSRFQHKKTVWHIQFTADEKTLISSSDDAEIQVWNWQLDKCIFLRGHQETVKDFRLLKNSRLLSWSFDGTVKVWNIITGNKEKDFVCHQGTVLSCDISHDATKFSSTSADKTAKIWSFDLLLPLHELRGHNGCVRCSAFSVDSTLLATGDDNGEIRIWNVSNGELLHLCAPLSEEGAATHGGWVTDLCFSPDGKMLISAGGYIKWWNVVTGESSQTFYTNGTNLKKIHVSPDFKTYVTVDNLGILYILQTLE

Activity calls are given as the source filed them.
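Throughout, for CC50: cells exposed to compound for 16 hours before readout.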

Sequence of Genome polyprotein (P29990 2492-3391 limits assumed): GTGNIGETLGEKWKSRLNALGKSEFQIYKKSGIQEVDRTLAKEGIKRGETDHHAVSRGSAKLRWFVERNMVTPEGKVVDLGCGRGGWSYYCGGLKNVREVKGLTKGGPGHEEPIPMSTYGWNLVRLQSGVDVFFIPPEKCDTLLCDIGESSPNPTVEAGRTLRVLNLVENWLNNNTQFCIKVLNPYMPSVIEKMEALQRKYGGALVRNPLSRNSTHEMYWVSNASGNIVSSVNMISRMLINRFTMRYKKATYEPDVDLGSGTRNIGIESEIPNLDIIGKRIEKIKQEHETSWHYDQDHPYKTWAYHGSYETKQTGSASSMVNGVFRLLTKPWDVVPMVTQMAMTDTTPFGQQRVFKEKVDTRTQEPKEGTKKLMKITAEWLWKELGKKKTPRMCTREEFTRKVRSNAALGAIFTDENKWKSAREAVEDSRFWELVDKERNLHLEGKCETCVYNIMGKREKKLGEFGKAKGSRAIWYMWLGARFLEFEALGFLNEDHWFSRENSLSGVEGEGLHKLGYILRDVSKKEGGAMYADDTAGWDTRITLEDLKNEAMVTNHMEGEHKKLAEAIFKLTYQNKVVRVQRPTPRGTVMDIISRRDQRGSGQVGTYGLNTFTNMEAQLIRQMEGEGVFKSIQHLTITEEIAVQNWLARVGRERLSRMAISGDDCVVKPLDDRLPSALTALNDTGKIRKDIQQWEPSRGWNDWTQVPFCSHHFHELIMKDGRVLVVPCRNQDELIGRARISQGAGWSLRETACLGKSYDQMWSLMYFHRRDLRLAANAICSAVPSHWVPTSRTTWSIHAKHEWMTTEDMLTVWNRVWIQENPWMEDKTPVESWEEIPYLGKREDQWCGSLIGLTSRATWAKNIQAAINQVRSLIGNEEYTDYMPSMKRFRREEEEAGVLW
Sequence of Beta-galactosidase (Q8VNN2 whole entry): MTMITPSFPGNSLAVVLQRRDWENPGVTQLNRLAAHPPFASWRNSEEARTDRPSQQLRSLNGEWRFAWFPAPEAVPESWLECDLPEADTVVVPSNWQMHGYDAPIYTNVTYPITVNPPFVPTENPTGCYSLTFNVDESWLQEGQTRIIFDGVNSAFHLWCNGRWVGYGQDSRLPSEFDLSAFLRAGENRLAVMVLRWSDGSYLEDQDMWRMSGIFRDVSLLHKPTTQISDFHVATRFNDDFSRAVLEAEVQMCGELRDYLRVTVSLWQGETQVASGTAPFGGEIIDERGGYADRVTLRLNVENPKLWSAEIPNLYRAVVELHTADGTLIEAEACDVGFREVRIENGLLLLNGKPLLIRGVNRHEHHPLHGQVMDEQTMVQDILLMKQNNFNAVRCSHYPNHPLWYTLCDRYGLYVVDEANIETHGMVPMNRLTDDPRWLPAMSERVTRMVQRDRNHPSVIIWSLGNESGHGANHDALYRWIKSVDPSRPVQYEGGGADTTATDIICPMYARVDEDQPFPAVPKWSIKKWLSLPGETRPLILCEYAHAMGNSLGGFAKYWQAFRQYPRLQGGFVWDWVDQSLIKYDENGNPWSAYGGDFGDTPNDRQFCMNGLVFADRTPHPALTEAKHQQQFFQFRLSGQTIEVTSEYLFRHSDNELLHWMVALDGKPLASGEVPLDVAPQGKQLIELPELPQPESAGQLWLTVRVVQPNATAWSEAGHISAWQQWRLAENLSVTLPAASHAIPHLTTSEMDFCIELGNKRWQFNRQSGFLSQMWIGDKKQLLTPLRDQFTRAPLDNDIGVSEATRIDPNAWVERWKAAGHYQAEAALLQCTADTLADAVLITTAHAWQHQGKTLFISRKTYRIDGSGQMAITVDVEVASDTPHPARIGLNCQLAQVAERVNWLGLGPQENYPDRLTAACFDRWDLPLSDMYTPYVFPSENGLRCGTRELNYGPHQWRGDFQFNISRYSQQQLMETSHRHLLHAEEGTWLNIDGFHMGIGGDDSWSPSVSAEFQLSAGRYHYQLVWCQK

As to `Nc1ccc(N2CCCCC2)c2nonc12`, on Genome polyprotein, the IC50 (in general, the concentration needed to halve the response being measured) is 40.6 µM (active).
Turning to `COc1ccc(NC(=O)/C(Cl)=C(/Cl)[S+]([O-])Cc2ccccc2)cn1` (stereo unspecified), in the assay with HeLa, the CC50 (as a rule, the concentration at which the toxic effect on the cells reaches its halfway point) is 1.75 µM (active). For the same compound, the EC50 (commonly the concentration needed to bring the measured effect to its halfway point) on Beta-galactosidase is > 40 µM (inactive); in assay [2], 0.197 µM (active). The AC50 (usually the concentration at which the activity in the assay is half-maximal) in assay [1] is 5.52 µM (active).
As for `Cc1ccc(S(=O)(=O)/N=C2\C=C(Nc3cccc(C(=O)O)c3)C(=O)c3ccccc32)c(C)c1`, the IC50 in assay [3] is 4.11 µM (active).

For the origin of these results see ChEMBL document CHEMBL1201862, “PubChem BioAssay data set” (2004).
